# Results from ChEMBL document CHEMBL3351868, “Structure-affinity relationships and pharmacological characterization of new alkyl-resorcinol cannabinoid receptor ligands: Identification of a dual cannabinoid receptor/TRPA1 channel agonist” (Bioorg Med Chem, 2014).
# Tests used:
# Cannabinoid receptor 2 = Cannabinoid receptor 2 (Homo sapiens, UniProt P34972); assay: Displacement of [3H]CP-55,940 from human recombinant CB2 receptor expressed in HEK293 cell membranes
# Cannabinoid receptor 1 = Cannabinoid receptor 1 (Homo sapiens, UniProt P21554); assay: Displacement of [3H]CP-55,940 from human recombinant CB1 receptor expressed in HEK293 cell membranes
# Homo sapiens [1] = species on record: Homo sapiens; assay: Selectivity index, ratio of Ki for human recombinant CB1 receptor to Ki for human recombinant CB2 receptor
# Homo sapiens [2] = species on record: Homo sapiens; assay: Selectivity index, ratio of Ki for human recombinant CB2 receptor to Ki for human recombinant CB1 receptor
# Sequence of Cannabinoid receptor 1 (P21554 whole entry): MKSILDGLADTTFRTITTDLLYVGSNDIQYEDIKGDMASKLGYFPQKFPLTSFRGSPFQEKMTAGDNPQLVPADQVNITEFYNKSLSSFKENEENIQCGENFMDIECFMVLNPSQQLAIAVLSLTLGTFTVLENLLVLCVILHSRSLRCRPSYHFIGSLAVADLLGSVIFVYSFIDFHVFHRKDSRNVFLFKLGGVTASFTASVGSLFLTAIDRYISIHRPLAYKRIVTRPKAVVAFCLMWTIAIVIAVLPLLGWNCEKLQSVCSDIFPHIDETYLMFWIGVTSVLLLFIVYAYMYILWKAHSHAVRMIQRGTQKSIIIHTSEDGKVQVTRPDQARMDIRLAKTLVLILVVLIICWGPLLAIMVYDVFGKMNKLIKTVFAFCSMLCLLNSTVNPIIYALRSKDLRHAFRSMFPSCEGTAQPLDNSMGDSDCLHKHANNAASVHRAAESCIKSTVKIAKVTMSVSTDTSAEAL
# Sequence of Cannabinoid receptor 2 (P34972 whole entry): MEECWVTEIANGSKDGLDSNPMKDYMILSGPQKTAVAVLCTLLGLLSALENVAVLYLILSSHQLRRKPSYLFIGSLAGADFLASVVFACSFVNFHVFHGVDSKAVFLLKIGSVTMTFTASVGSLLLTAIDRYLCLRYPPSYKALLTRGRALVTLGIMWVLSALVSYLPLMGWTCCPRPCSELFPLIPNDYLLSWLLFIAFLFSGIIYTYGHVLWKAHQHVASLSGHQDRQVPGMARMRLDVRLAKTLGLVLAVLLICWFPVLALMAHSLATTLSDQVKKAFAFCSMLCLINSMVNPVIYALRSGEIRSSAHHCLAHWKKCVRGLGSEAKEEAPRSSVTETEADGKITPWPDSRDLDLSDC
SMILES,Ki (Cannabinoid receptor 2),Ki (Cannabinoid receptor 1),Ratio Ki (Homo sapiens [1]),Ratio Ki (Homo sapiens [2])
CCCCCCC(C)(C)c1cc(O)cc(OCCCCCCCCCCC(=O)NC(CO)CO)c1,230 nM,1890 nM,8.22,0.12
CCCCCc1cc(O)cc(OCCCCCCCCCCC(=O)NCc2ccccc2)c1,202 nM,> 10000 nM,> 49.5,< 0.02
CCCCCCc1ccc(OCCCCCCCCCCCNC(=O)C2CC2)cc1O,> 10000 nM,> 10000 nM,,
CCCCCCc1c(O)cccc1OCCCCCCCCCCC(=O)NC12CC3CC(CC(C3)C1)C2,> 10000 nM,> 10000 nM,,
CCCCCCC(C)(C)c1cc(O)cc(OCCCCCCCC(=O)NC23CC4CC(CC(C4)C2)C3)c1,> 10000 nM,> 10000 nM,,
CCCCCc1cc(O)cc(OCCCCCCCC(=O)N[C@H](C)CO)c1,119 nM,12.8 nM,0.11,9.32
CCCCCc1cc(O)cc(OCCCCCCCCCN[C@H](C)CO)c1,1520 nM,1060 nM,0.7,1.43
CCCCCc1cc(O)cc(OCCCCCCCCCCCCNC2CC2)c1,> 10000 nM,830 nM,< 0.08,> 12.1
CCCCCCC(C)(C)c1cc(O)cc(OCCCCCCCCCCC(=O)N[C@H](C)CO)c1,21.2 nM,132 nM,6.24,0.16
CCCCCc1cc(O)cc(OCCCCCCCCCCCNCc2ccccc2)c1,830 nM,1240 nM,1.49,0.67
CCCCCCc1ccc(O)cc1OCCCCCCCCCCCNC(=O)C1CC1,250 nM,900 nM,3.6,0.28
CCCCCc1cc(O)cc(OCCCCCCCCCCC(=O)NCC(F)(F)F)c1,96.3 nM,438 nM,4.55,0.22
CCCCCCC(C)(C)c1cc(O)cc(OCCCCCCCCCCCNC(=O)C2CC2)c1,650 nM,2070 nM,3.18,0.31
CCCCCc1cc(O)cc(OCCCCCCCCCCC(=O)NC23CC4CC(CC(C4)C2)C3)c1,> 10000 nM,> 10000 nM,,
CCCCCCc1ccc(O)cc1OCCCCCCCCCCC(=O)NC(CO)CO,2370 nM,> 10000 nM,> 4.22,< 0.24
CCCCCc1cc(O)cc(OCCCCCCCCCCC(=O)N[C@H](C)CO)c1,97.2 nM,264 nM,2.72,0.37
CCCCCCC(C)(C)c1cc(O)cc(OCCCCCCCC(=O)NCC(F)(F)F)c1,27.9 nM,397 nM,14.2,0.07
CCCCCCc1ccc(OCCCCCCCCCCC(=O)NC23CC4CC(CC(C4)C2)C3)cc1O,> 10000 nM,> 10000 nM,,
CCCCCc1cc(O)cc(OCCCCCCCCCCCNC2CC2)c1,1890 nM,2080 nM,1.1,0.91
CCCCCCC(C)(C)c1cc(O)cc(OCCCCCCCCCCC(=O)NC23CC4CC(CC(C4)C2)C3)c1,> 10000 nM,> 10000 nM,,
C=CCNC(=O)CCCCCCCCCCOc1cc(O)cc(CCCCC)c1,16.4 nM,136 nM,8.31,0.12
CCCCCc1cc(O)cc(OCCCCCCCCCCCNC(=O)C2CC2)c1,460 nM,2770 nM,6.02,0.17
C=CCNCCCCCCCCCCCOc1cc(O)cc(CCCCC)c1,1850 nM,1140 nM,0.62,1.62
CCCCCCC(C)(C)c1cc(O)cc(OCCCCCCCC(=O)NC(CO)CO)c1,815 nM,178 nM,0.22,4.6
CCCCCc1cc(O)cc(OCCCCCCCCCCC(=O)NC(CO)CO)c1,540 nM,> 10000 nM,> 18.5,< 0.05
CCCCCCc1ccc(OCCCCCCCCCCC(=O)NC(CO)CO)cc1O,> 10000 nM,> 10000 nM,,
